Results reported in patent publication US8735609B2, “Bryostatin analogues, synthetic methods and uses” (The Board of Trustees of the Leland Stanford Junior …, priority 2007, dated 2014).

Tests used:
ACHN = experiment: NCI human cancer cell line growth inhibition: ACHN (Renal); format: cell-based; conditions: Homo sapiens
SF-295 = experiment: NCI human cancer cell line growth inhibition: SF-295 (CNS); format: cell-based; conditions: Homo sapiens
T-47D = experiment: NCI human cancer cell line growth inhibition: T-47D (Breast); format: cell-based; conditions: Homo sapiens, T47D
MDA-MB-231/ATCC = experiment: NCI human cancer cell line growth inhibition: MDA-MB-231/ATCC (Breast); format: cell-based; conditions: Homo sapiens
RPMI-8226 = experiment: NCI human cancer cell line growth inhibition: RPMI-8226 (Leukemia); format: cell-based; conditions: Homo sapiens
IGROVI = experiment: NCI human cancer cell line growth inhibition: IGROVI (Ovarian); format: cell-based; conditions: Homo sapiens
HS 578T = experiment: NCI human cancer cell line growth inhibition: HS 578T (Breast); format: cell-based; conditions: Homo sapiens
EKVX = experiment: NCI human cancer cell line growth inhibition: EKVX (NSC Lung); format: cell-based; conditions: Homo sapiens
LOX IMVI = experiment: NCI human cancer cell line growth inhibition: LOX IMVI (Melanoma); format: cell-based; conditions: Homo sapiens
SNB-19 = experiment: NCI human cancer cell line growth inhibition: SNB-19 (CNS); format: cell-based; conditions: Homo sapiens
P388 cell line = experiment: P388 murine lymphocytic leukemia cell assay; format: cell-based
Method: Cells from a P388 cell line (CellGate, Inc., Sunnyvale, Calif.) are grown in RPMI 1640 cell medium containing fetal calf serum (10%), L-glutamine, penicillin, streptomycin and are split twice weekly. All compounds are first diluted with DMSO. Later serial dilutions are done with a phosphate buffer solution (HYQ DPBS modified phosphate buffered saline). All dilutions are done in glass vials and the final DMSO concentration is always below 0.5% by volume. Final two-fold dilutions are done in a 96 well plate using cell media so that each well contains 50 μL. All compounds are assayed in quadruplicate over 12 concentrations. Cell concentration is measured using a hemacytometer and the final cell concentration is adjusted to 1×10^4 cells/mL with cell medium. The resulting solution of cells (50 μL) is then added to each well and the plates are incubated for 5 days in a 37° C., 5% CO2, humidified incubator (Sanyo CO2 incubator). MTT solution (3-[4,5-dimethylthiazol-2-yl]-2,5-diphenyltetrazolium bromide, 10 μL) is then added to each well and the plates are re-incubated under identical conditions for 2 h. To each well is then added acidified isopropanol (150 μL of i-PrOH solution containing 0.05 N HCl) and mixed thoroughly. The plates are then scanned at 595 nm and the absorbances are read (Wallac Victor 1420 Multilabel Counter). The resulting data is then analyzed to determine an ED50 value using the Prism software package (GraphPad).

SK-MEL-28 = experiment: NCI human cancer cell line growth inhibition: SK-MEL-28 (Melanoma); format: cell-based; conditions: Homo sapiens
MI4 = experiment: NCI human cancer cell line growth inhibition: MI4 (Melanoma); format: cell-based; conditions: Homo sapiens
SW-620 = experiment: NCI human cancer cell line growth inhibition: SW-620 (Colon); format: cell-based; conditions: Homo sapiens
HOP-92 = experiment: NCI human cancer cell line growth inhibition: HOP-92 (NSC Lung); format: cell-based; conditions: Homo sapiens
HCT-15 = experiment: NCI human cancer cell line growth inhibition: HCT-15 (Colon); format: cell-based; conditions: Homo sapiens
MDA-MB-435 = experiment: NCI human cancer cell line growth inhibition: MDA-MB-435 (Breast); format: cell-based; conditions: Homo sapiens
UACC-257 = experiment: NCI human cancer cell line growth inhibition: UACC-257 (Melanoma); format: cell-based; conditions: Homo sapiens
HCT-116 = experiment: NCI human cancer cell line growth inhibition: HCT-116 (Colon); format: cell-based; conditions: Homo sapiens
CAKI-1 = experiment: NCI human cancer cell line growth inhibition: CAKI-1 (Renal); format: cell-based; conditions: Homo sapiens
OVCAR-4 = experiment: NCI human cancer cell line growth inhibition: OVCAR-4 (Ovarian); format: cell-based; conditions: Homo sapiens
KM12 = experiment: NCI human cancer cell line growth inhibition: KM12 (Colon); format: cell-based; conditions: Homo sapiens
OVCAR-8 = experiment: NCI human cancer cell line growth inhibition: OVCAR-8 (Ovarian); format: cell-based; conditions: Homo sapiens
U251 = experiment: NCI human cancer cell line growth inhibition: U251 (CNS); format: cell-based; conditions: Homo sapiens, U-251
SF-539 = experiment: NCI human cancer cell line growth inhibition: SF-539 (CNS); format: cell-based; conditions: Homo sapiens
UO-31 = experiment: NCI human cancer cell line growth inhibition: UO-31 (Renal); format: cell-based; conditions: Homo sapiens
CCRF-CEM = experiment: NCI human cancer cell line growth inhibition: CCRF-CEM (Leukemia); format: cell-based; conditions: Homo sapiens
SK-MEL-2 = experiment: NCI human cancer cell line growth inhibition: SK-MEL-2 (Melanoma); format: cell-based; conditions: Homo sapiens
HOP-62 = experiment: NCI human cancer cell line growth inhibition: HOP-62 (NSC Lung); format: cell-based; conditions: Homo sapiens
SN12C = experiment: NCI human cancer cell line growth inhibition: SN12C (Renal); format: cell-based; conditions: Homo sapiens
A498 = experiment: NCI human cancer cell line growth inhibition: A498 (Renal); format: cell-based; conditions: Homo sapiens
NCI-H460 = format: cell-based, human; conditions: Homo sapiens; NCI-H460, NSC Lung; read-out: Growth inhibition (GI50)
[1] = system: NCI human cancer cell-lines; experiment: In vitro inhibition of growth in NCI human cancer cell lines (panel); format: cell-based
TK-10 = experiment: NCI human cancer cell line growth inhibition: TK-10 (Renal); format: cell-based; conditions: Homo sapiens
K-562 = experiment: NCI human cancer cell line growth inhibition: K-562 (Leukemia); format: cell-based; conditions: Homo sapiens, K562
A549/ATCC = experiment: NCI human cancer cell line growth inhibition: A549/ATCC (NSC Lung); format: cell-based; conditions: Homo sapiens
SR = experiment: NCI human cancer cell line growth inhibition: SR (Leukemia); format: cell-based; conditions: Homo sapiens
COLO 205 = experiment: NCI human cancer cell line growth inhibition: COLO 205 (Colon); format: cell-based; conditions: Homo sapiens
MOLT-4 = experiment: NCI human cancer cell line growth inhibition: MOLT-4 (Leukemia); format: cell-based; conditions: Homo sapiens
HT29 = experiment: NCI human cancer cell line growth inhibition: HT29 (Colon); format: cell-based; conditions: Homo sapiens, HT-29
BT-549 = experiment: NCI human cancer cell line growth inhibition: BT-549 (Breast); format: cell-based; conditions: Homo sapiens
HL-60(TB) = experiment: cells; format: cell-based, human; conditions: Homo sapiens, HL-60, read-out: Growth inhibition (GI50)
MCF7 = experiment: NCI human cancer cell line growth inhibition: MCF7 (Breast); format: cell-based; conditions: Homo sapiens
UACC-62 = experiment: NCI human cancer cell line growth inhibition: UACC-62 (Melanoma); format: cell-based; conditions: Homo sapiens

For CCCCCCCC(=O)O[C@H]1/C(=C/C(=O)OC)C[C@H]2C[C@H](CO)OC(=O)C[C@H](O)C[C@@H]3CCC[C@H](C[C@@H]4CCO[C@H](/C=C/C(C)(C)[C@]1(O)O2)O4)O3 [Formula IIa (702.1)], the GI50 (ACHN) was 1.15 µM, the GI50 (SF-295) was 0.891 µM and the GI50 (T-47D) was 9.55 µM. For the same compound, the GI50 (MDA-MB-231/ATCC) was 2.04 µM, the GI50 (RPMI-8226) was 1.51 µM and the GI50 (IGROVI) was 13.2 µM. It also gave a GI50 (HS 578T) of 6.61 µM, a GI50 (EKVX) of 2.63 µM and a GI50 (LOX IMVI) of 3.39 µM. The GI50 (SNB-19) was 6.31 µM, the “activity in P388 assay compared with the corresponding C26 methyl-containing analogue” value (P388 cell line) was “significantly higher activity” and the EC50 (P388 cell line; Mus musculus, P388, 120 h, read-out: P388 Assay ED50) was 0.017 µM. It also gave a GI50 (SK-MEL-28) of 21.4 µM, a GI50 (MI4) of 5.5 µM and a GI50 (SW-620) of 7.59 µM. For the same compound, the GI50 (HOP-92) was 21.4 µM, the GI50 (HCT-15) was 17.4 µM and the GI50 (MDA-MB-435) was 0.0219 µM. It also gave a GI50 (UACC-257) of 7.41 µM, a GI50 (HCT-116) of 4.79 µM and a GI50 (CAKI-1) of 2 µM. It also gave a GI50 (OVCAR-4) of 7.08 µM, a GI50 (KM12) of 4.57 µM and a GI50 (OVCAR-8) of 17 µM. For the same compound, the GI50 (U251) was 3.98 µM, the GI50 (SF-539) was 1.7 µM and the GI50 (UO-31) was 14.1 µM. For the same compound, the GI50 (CCRF-CEM) was 1.55 µM, the GI50 (SK-MEL-2) was 9.55 µM and the GI50 (HOP-62) was 16.2 µM. It also gave a GI50 (SN12C) of 2.57 µM, a GI50 (A498) of 0.417 µM and a GI50 (NCI-H460) of less than 0.01 µM. For the same compound, the “more active than bryostatin-1” value ([1]; K-562, MOLT-4, NCI-H460, HCC-2998, TK-10, MDA-MB-435) was “more than 2 orders of magnitude”, the “potency compared with bryostatin-1, on average” value ([1]; all cell groups tested) was “at least as potent, on average, as bryostatin-1” and the GI50 (TK-10) was 0.0933 µM. The GI50 (K-562) was 0.0316 µM, the GI50 (A549/ATCC) was 0.24 µM and the GI50 (SR) was 7.94 µM. The GI50 (COLO 205) was 0.0832 µM, the GI50 (MOLT-4) was less than 0.01 µM and the GI50 (HT29) was 2.82 µM. For the same compound, the GI50 (BT-549) was 19.5 µM, the GI50 (HL-60(TB)) was 1.45 µM and the GI50 (MCF7) was 3.98 µM. The GI50 (UACC-62) was 7.76 µM.
